Assays:
Assay type in all cases: functional
[1] = system: Micrococcus luteus; experiment: Antibacterial activity against Micrococcus luteus ATCC 9341
[2] = system: Escherichia coli; experiment: Antibacterial activity against Escherichia coli ATCC 25922
[3] = system: Bacillus subtilis; experiment: Antibacterial activity against Bacillus subtilis ATCC 6633

Row | SMILES | MIC [1] [µg] | MIC [2] [µg] | MIC [3] [µg]
1 | O=C(N[C@H](CO)[C@H](O)c1ccc([N+](=O)[O-])cc1)C(Cl)Cl [CHLORAMPHENICOL] | 0.04 | 0.04 | 0.1
2 | CC1(C)[C@@H](O)C(=O)C[C@]2(C)[C@H]3CC=C4[C@@H]5C[C@@](C)(C(=O)O)CC[C@]5(C)CC[C@@]4(C)[C@]3(C)CC[C@@H]12 [DILLENIC ACID B] | 1 | 1 | 2

Other lines, results leading:

Row | MIC [1] [µg] | MIC [2] [µg] | MIC [3] [µg] | SMILES
3 | 1 | 1 | 1 | CC1(C)C(=O)C=C[C@]2(C)[C@H]3CC=C4[C@@H]5C[C@@](C)(C(=O)O)CC[C@]5(C)CC[C@@]4(C)[C@]3(C)CC[C@@H]12
4 | 1.2 | 2.4 | 2.4 | CC1(C)C(=O)[C@H](O)C[C@]2(C)[C@H]3CC=C4[C@@H]5C[C@@](C)(C(=O)O)CC[C@]5(C)CC[C@@]4(C)[C@]3(C)CC[C@@H]12 [DILLENIC ACID A]
5 | 2 | 5 | 2 | CC1(C)C(=O)C[C@H](O)[C@]2(C)[C@H]3CC=C4[C@@H]5C[C@@](C)(C(=O)O)CC[C@]5(C)CC[C@@]4(C)[C@]3(C)CC[C@@H]12 [DILLENIC ACID C]

— ChEMBL document CHEMBL1148058, “Antibacterial triterpenoid acids from Dillenia papuana” (1994)
